# Experimental data from the Kinase Knowledgebase extract (Sharma et al. 2016).
# Biological target: CDK2 (UniProt P24941)
# Assay: Enzyme Assay
row,Ki [nM],Compound
1,100 to 1000,Cc1cnc(NCc2ccccc2)nc1-c1c[nH]c(C(=O)N[C@H](CO)c2ccccc2)c1
2,100 to 1000,Cc1cnc(Nc2cccc(F)c2)nc1-c1c[nH]c(C(=O)NC(CO)c2cccc(C(F)(F)F)c2)c1 (configuration not stated)
3,100 to 1000,Cc1cnc(Nc2ccccc2)nc1-c1c[nH]c(C(=O)NC(CO)c2cccc(C(F)(F)F)c2)c1 (configuration not stated)
4,100 to 1000,Cc1cnc(N[C@@H](CO)c2ccccc2)nc1-c1c[nH]c(C(=O)N[C@H](CO)c2ccccc2)c1
5,1000 to 20000,Cc1cnc(NCC2CC2)nc1-c1c[nH]c(C(=O)N[C@H](CO)c2ccccc2)c1
6,1000 to 20000,CCNc1ncc(C)c(-c2c[nH]c(C(=O)N[C@H](CO)c3ccccc3)c2)n1
7,< 100,Cc1cnc(N[C@H]2CC[C@H](O)CC2)nc1-c1c[nH]c(C(=O)N[C@H](CO)c2ccccc2)c1
8,100 to 1000,Cc1cnc(NC2(CO)CC2)nc1-c1c[nH]c(C(=O)N[C@H](CO)c2ccccc2)c1
9,1000 to 20000,COc1ccccc1Nc1ncc(C)c(-c2c[nH]c(C(=O)N[C@H](CO)c3ccccc3)c2)n1
10,100 to 1000,Cc1cnc(NC2CC2)nc1-c1c[nH]c(C(=O)N[C@H](CO)c2ccccc2)c1
11,< 100,Cc1cnc(Nc2ccc(OCc3ccccc3)cc2)nc1-c1c[nH]c(C(=O)N[C@H](CO)c2ccccc2)c1
12,< 100,Cc1cnc(Nc2cccc(C(F)(F)F)c2)nc1-c1c[nH]c(C(=O)N[C@H](CO)c2ccccc2)c1
